Measurements published in ChEMBL document CHEMBL5576039, “Novel naphthoquinone-1H-1,2,3-triazole hybrids: Design, synthesis and evaluation as inductors of ROS-mediated apoptosis in the MCF-7 cells” (Bioorg Med Chem, 2024).
Active and inactive are the calls of the source. The rule behind the calls is not given here.

Key:
MCF7 [1] = test: Cytotoxicity against human MCF7 cells assessed as reduction in cell viability incubated for 24 hrs by MTT assay; type: functional, cell-based; conditions: MCF7, 24 h
MCF7 [2] = test: Activation of AMPK in human MCF7 cells assessed as reduction in mTOR phosphorylation at Ser2448 residue at 6 to 12 uM incubated for 2 hrs by western blot analysis; type: cell-based; conditions: filed as activator, dose 6-12 µM
MCF7 [3] = test: Activation of AMPK in human MCF7 cells assessed as increase in AMPK phosphorylation at Thr172 residue at 12 uM incubated for 2 hrs by western blot analysis; type: cell-based; conditions: filed as activator
MDA-MB-231 [4] = test: Activation of AMPK in human MDA-MB-231 cells assessed as reduction in p70S6K phosphorylation at Thr421/Ser424 residue at 6 to 12 uM incubated for 2 hrs by western blot analysis; type: cell-based; conditions: filed as activator, dose 6-12 µM
MDA-MB-231 [5] = test: Activation of AMPK in human MDA-MB-231 cells assessed as increase in ACC phosphorylation at Ser79 residue at 12 uM incubated for 2 hrs by western blot analysis; type: cell-based; conditions: filed as activator
MCF7 [6] = test: Induction of apoptotic cell death in human MCF7 cells incubated for 12 to 24 hrs by AnnexinV/7-AAD staining based flow cytometry; type: functional; conditions: dose 6-12 µM, time 12-24 hrs
MDA-MB-231 [7] = test: Activation of AMPK in human MDA-MB-231 cells assessed as increase in AMPK phosphorylation at Thr172 residue at 12 uM incubated for 2 hrs by western blot analysis; type: cell-based; conditions: filed as activator
MCF7 [8] = test: Induction of cell death in human MCF7 cells assessed as reduction in number of live cells at 12 uM incubated for 4 hrs by AnnexinV/7-AAD staining based flow cytometry; type: functional
MCF7 [9] = test: Activation of AMPK in human MCF7 cells assessed as reduction in S6 phosphorylation at Ser235/236 residue at 6 to 12 uM incubated for 2 hrs by western blot analysis; type: cell-based; conditions: filed as activator, dose 6-12 µM
MCF-10A [10] = test: Cytotoxicity against human MCF-10A cells assessed as reduction in cell viability incubated for 24 hrs by MTT assay; type: toxicity, cell-based
MDA-MB-231 [11] = test: Activation of AMPK in human MDA-MB-231 cells assessed as reduction in S6 phosphorylation at Ser235/236 residue at 6 to 12 uM incubated for 2 hrs by western blot analysis; type: cell-based; conditions: filed as activator, dose 6-12 µM
MCF7 [12] = test: Cytotoxicity against human MCF7 cells assessed as reduction in cell viability at 6 uM incubated for 24 hrs by MTT assay; type: functional, cell-based
MDA-MB-231 [13] = test: Cytotoxicity against human MDA-MB-231 cells assessed as reduction in cell viability incubated for 24 hrs by MTT assay; type: functional, cell-based; conditions: MDA-MB-231, 24 h
MCF7 [14] = test: Increase in ROS production in human MCF7 cells assessed as increase in ROS-positive cells at 6 to 12 uM incubated for 2 hrs by DCFDA/7-AAD staining based flow cytometry; type: functional, cell-based; conditions: dose 6-12 µM
MCF7 [15] = test: Cytotoxicity against human MCF7 cells assessed as reduction in cell viability at 6 to 12 uM by MTT assay; type: functional, cell-based; conditions: dose 6-12 µM, time 2-24 hrs, TDE = time-dependent effect
MDA-MB-231 [16] = test: Increase in ROS production in human MDA-MB-231 cells assessed as increase in ROS-positive cells at 6 to 12 uM incubated for 2 to 24 hrs by DCFDA/7-AAD staining based flow cytometry; type: functional, cell-based; conditions: dose 6-12 µM, time 2-24 hrs
MCF7 [17] = test: Induction of cell death in human MCF7 cells assessed as proportion of live cells at 6 uM incubated for 12 hrs by AnnexinV/7-AAD staining based flow cytometry; type: functional
MCF7 [18] = test: Induction of apoptotic cell death in human MCF7 cells at 6 to 12 uM by AnnexinV/7-AAD staining based flow cytometry; type: functional; conditions: dose 6-12 µM, time 12-24 hrs, TDE = time-dependent effect
MCF7 [19] = test: Activation of AMPK in human MCF7 cells assessed as increase in ACC phosphorylation at Ser79 residue at 12 uM incubated for 2 hrs by western blot analysis; type: cell-based; conditions: filed as activator
MCF7 [20] = test: Cytotoxicity against human MCF7 cells assessed as reduction in cell viability incubated for 2 to 24 hrs by MTT assay; type: functional, cell-based; conditions: dose 6-12 µM, time 2-24 hrs
MCF-10A [21] = test: Induction of apoptotic cell death in human MCF-10A cells assessed as increase in AnnexinV-positive cells at 12 uM incubated for 2 hrs by AnnexinV/7-AAD staining based flow cytometry; type: toxicity
MDA-MB-231 [22] = test: Induction of apoptotic cell death in human MDA-MB-231 cells assessed as increase in AnnexinV-positive cells at 3 to 12 uM incubated for 2 hrs by AnnexinV/7-AAD staining based flow cytometry; type: functional; conditions: dose 3-12 µM
MCF7 [23] = test: Induction of cell death in human MCF7 cells assessed as proportion of live cells at 12 uM incubated for 12 hrs by AnnexinV/7-AAD staining based flow cytometry; type: functional
MCF7 [24] = test: Cytotoxicity against human MCF7 cells assessed as reduction in cell viability at 12 uM incubated for 24 hrs by MTT assay; type: functional, cell-based
MCF7 [25] = test: Cytotoxicity against human MCF7 cells assessed as reduction in cell viability at 50 uM incubated for 24 hrs by MTT assay; type: functional, cell-based
MDA-MB-231 [26] = test: Induction of apoptotic cell death in human MDA-MB-231 cells assessed as increase in AnnexinV-positive cells at 1 uM incubated for 2 hrs by AnnexinV/7-AAD staining based flow cytometry; type: functional
MCF-10A [27] = test: Induction of apoptotic cell death in human MCF-10A cells assessed as increase in AnnexinV-positive cells at 1 uM incubated for 2 hrs by AnnexinV/7-AAD staining based flow cytometry; type: toxicity
MCF7 [28] = test: Induction of apoptotic cell death in human MCF7 cells assessed as increase in AnnexinV-positive cells at 1 uM incubated for 2 hrs by AnnexinV/7-AAD staining based flow cytometry; type: functional
MCF7 [29] = test: Increase in ROS production in human MCF7 cells assessed as increase in ROS-positive cells at 6 to 12 uM incubated for 4 hrs by DCFDA/7-AAD staining based flow cytometry; type: functional, cell-based; conditions: dose 6-12 µM
MCF7 [30] = test: Induction of apoptotic cell death in human MCF7 cells assessed as increase in AnnexinV-positive cells at 3 uM incubated for 2 hrs by AnnexinV/7-AAD staining based flow cytometry; type: functional

Structure (SMILES): CCc1ccc(-n2cc(CCNC3=C(C)C(=O)c4ccccc4C3=O)nn2)cc1
- IC50 (MCF7 [1]): 8.73 µM

Structure (SMILES): CC(C)=CC1=C(OCc2cn(C(C)C3=C(C)C(=O)c4ccccc4C3=O)nn2)C(=O)c2ccccc2C1=O (stereo unspecified)
- Activity (MCF7 [2]): Active
- Activity (MCF7 [3]): Active
- Activity (MDA-MB-231 [4]): Active
- Activity (MDA-MB-231 [5]): Active
- Activity (MCF7 [6]): Dose-Dependent Effect
- IC50 (MCF7 [1]): 4.3 µM
- Activity (MDA-MB-231 [7]): Active
- Activity (MCF7 [8]): Active
- Activity (MCF7 [9]): Active
- Activity (MCF-10A [10]): Non-Toxic
- Activity (MDA-MB-231 [11]): Active
- Activity (MCF7 [12]): Active
- IC50 (MDA-MB-231 [13]): 9.2 µM
- Activity (MCF7 [14]): Active
- Activity (MCF7 [15]): Tde
- Activity (MDA-MB-231 [16]): inactive
- Activity (MCF7 [17]): <75%
- Activity (MCF7 [18]): Tde
- Activity (MCF7 [19]): Active
- Activity (MCF7 [20]): Dose-Dependent Effect
- Activity (MCF-10A [21]): Toxic
- Activity (MDA-MB-231 [22]): inactive
- Activity (MCF7 [23]): <95%
- Activity (MCF7 [24]): Active

Structure (SMILES): O=C1C=C(NCc2cn(-c3ccc(C(F)(F)F)cc3)nn2)C(=O)c2ccccc21
- IC50 (MCF7 [1]): 10.4 µM

Structure (SMILES): CC(C)=CCC1=C(OCc2cn(C(C3=C(C)C(=O)c4ccccc4C3=O)c3ccccc3)nn2)C(=O)c2ccccc2C1=O (stereo unspecified)
- Activity (MCF7 [24]): Active

Structure (SMILES): CC1=C(Cn2cc(CNC3=CC(=O)c4ccccc4C3=O)nn2)C(=O)c2ccccc2C1=O
- Activity (MCF7 [24]): Active

Structure (SMILES): CC1=C(C(c2ccc(Br)cc2)n2cc(CNC3=CC(=O)c4ccccc4C3=O)nn2)C(=O)c2ccccc2C1=O (stereo unspecified)
- Activity (MCF7 [25]): inactive

Structure (SMILES): CC(C)=CCC1=C(OCc2cn(C(C)C3=C(C)C(=O)c4ccccc4C3=O)nn2)C(=O)c2ccccc2C1=O (stereo unspecified)
- Activity (MCF7 [25]): inactive

Structure (SMILES): CC1=C(C(c2ccccc2)n2cc(CNC3=CC(=O)c4ccccc4C3=O)nn2)C(=O)c2ccccc2C1=O (stereo unspecified)
- Activity (MCF7 [25]): inactive

Structure (SMILES): CC(C)=CCC1=C(OCc2cn(C(C3=C(C)C(=O)c4ccccc4C3=O)c3ccc(Cl)cc3)nn2)C(=O)c2ccccc2C1=O (stereo unspecified)
- Activity (MCF7 [25]): inactive

Structure (SMILES): CC1=C(C(c2ccc(Cl)cc2)n2cc(CNC3=CC(=O)c4ccccc4C3=O)nn2)C(=O)c2ccccc2C1=O (stereo unspecified)
- Activity (MCF7 [25]): inactive

Structure (SMILES): CC1=C(C(c2ccc(F)cc2)n2cc(CNC3=CC(=O)c4ccccc4C3=O)nn2)C(=O)c2ccccc2C1=O (stereo unspecified)
- Activity (MCF7 [25]): inactive

Structure (SMILES): CC(C)(C)c1ccc(-n2cc(CNC3=CC(=O)c4ccccc4C3=O)nn2)cc1
- IC50 (MCF7 [1]): 21.2 µM

Structure (SMILES): CC(C)=CCC1=C(OCc2cn(CC3=C(C)C(=O)c4ccccc4C3=O)nn2)C(=O)c2ccccc2C1=O
- Activity (MCF7 [25]): inactive

Structure (SMILES): CC(C)=CCC1=C(OCc2cn(C(C3=C(C)C(=O)c4ccccc4C3=O)c3ccc(Br)cc3)nn2)C(=O)c2ccccc2C1=O (stereo unspecified)
- Activity (MCF7 [25]): inactive

Structure (SMILES): CC1=C(C(C)n2cc(CNC3=CC(=O)c4ccccc4C3=O)nn2)C(=O)c2ccccc2C1=O (stereo unspecified)
- Activity (MCF7 [25]): inactive

Structure (SMILES): CC(C)=CCC1=C(OCc2cn(C(C3=C(C)C(=O)c4ccccc4C3=O)c3ccc(F)cc3)nn2)C(=O)c2ccccc2C1=O (stereo unspecified)
- Activity (MCF7 [25]): inactive

Structure (SMILES): COc1cccc2c1C(=O)c1c(O)c3c(c(O)c1C2=O)C[C@@](O)(C(=O)CO)C[C@@H]3O[C@H]1C[C@H](N)[C@H](O)[C@H](C)O1 [DOXORUBICIN]
- Activity (MDA-MB-231 [26]): Active
- Activity (MCF-10A [27]): Toxic
- Activity (MCF7 [28]): inactive

Structure (SMILES): CC(C)=CC1=C(OCc2cn(C(C3=C(C)C(=O)c4ccccc4C3=O)c3ccc(Cl)cc3)nn2)C(=O)c2ccccc2C1=O (stereo unspecified)
- Activity (MCF7 [25]): inactive

Structure (SMILES): CC(C)=CC1=C(OCc2cn(C(C3=C(C)C(=O)c4ccccc4C3=O)c3ccccc3)nn2)C(=O)c2ccccc2C1=O (stereo unspecified)
- Activity (MCF7 [24]): Active

Structure (SMILES): CC(C)=CC1=C(OCc2cn(CC3=C(C)C(=O)c4ccccc4C3=O)nn2)C(=O)c2ccccc2C1=O
- Activity (MCF7 [2]): Active
- Activity (MCF7 [3]): Active
- Activity (MDA-MB-231 [4]): Active
- Activity (MDA-MB-231 [5]): Active
- Activity (MCF7 [6]): Dose-Dependent Effect
- IC50 (MCF7 [1]): 4.4 µM
- Activity (MDA-MB-231 [7]): Active
- Activity (MCF7 [8]): Active
- Activity (MCF7 [29]): inactive
- Activity (MCF7 [9]): Active
- Activity (MCF-10A [10]): Non-Toxic
- Activity (MDA-MB-231 [11]): Active
- Activity (MCF7 [12]): Active
- IC50 (MDA-MB-231 [13]): 11.1 µM
- Activity (MCF7 [14]): Active
- Activity (MCF7 [15]): Tde
- Activity (MDA-MB-231 [16]): inactive
- Activity (MCF7 [30]): Active
- Activity (MCF7 [17]): <70%
- Activity (MCF7 [18]): Tde
- Activity (MCF7 [19]): Active
- Activity (MCF7 [20]): Dose-Dependent Effect
- Activity (MCF-10A [21]): Non-Toxic
- Activity (MDA-MB-231 [22]): inactive
- Activity (MCF7 [23]): <90%
- Activity (MCF7 [24]): Active

Structure (SMILES): CC(C)=CC1=C(OCc2cn(C(C3=C(C)C(=O)c4ccccc4C3=O)c3ccc(Br)cc3)nn2)C(=O)c2ccccc2C1=O (stereo unspecified)
- Activity (MCF7 [25]): inactive
